Legend:
Experiment in all cases: KINOMEscan
Type in all cases: binding
TRKB = molecular target: T1, TRKB (Homo sapiens, UniProt Q16620); settings: 1 uM
T1 construct: purchased Ambit KINOMEscan (DiscoverX)
How it was run: (§1)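 Compounds were each tested at a single concentration of 1 μM in a binding-based kinase panel.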

PRKD2 = molecular target: T2, PRKD2 (Homo sapiens, UniProt Q9BZL6); settings: PRKD2, 1 uM
T2 construct: purchased Ambit KINOMEscan (DiscoverX)
How it was run: as §1

TGFBR2 = molecular target: T3, TGFBR2 (Homo sapiens, UniProt P37173); settings: TGFBR2, 1 uM
T3 construct: purchased Ambit KINOMEscan (DiscoverX)
How it was run: as §1

ERBB3 = molecular target: T4, ERBB3 (Homo sapiens, UniProt P21860); settings: ERBB3, 1 uM
T4 construct: purchased Ambit KINOMEscan (DiscoverX)
How it was run: as §1

HIPK3 = molecular target: T5, HIPK3 (Homo sapiens, UniProt Q9H422); settings: HIPK3, 1 uM
T5 construct: purchased Ambit KINOMEscan (DiscoverX)
How it was run: as §1

CLK4 = molecular target: T6, CLK4 (Homo sapiens, UniProt Q9HAZ1); settings: CLK4, 1 uM
T6 construct: purchased Ambit KINOMEscan (DiscoverX)
How it was run: as §1

TNIK = molecular target: T7, TNIK (Homo sapiens, UniProt Q9UKE5); settings: 1 uM
T7 construct: purchased Ambit KINOMEscan (DiscoverX)
How it was run: as §1

STK39 = molecular target: T8, STK39 (Homo sapiens, UniProt Q9UEW8); settings: STK39, 1 uM
T8 construct: purchased Ambit KINOMEscan (DiscoverX)
How it was run: as §1

LATS1 = molecular target: T9, LATS1 (Homo sapiens, UniProt O95835); settings: LATS1, 1 uM
T9 construct: purchased Ambit KINOMEscan (DiscoverX)
How it was run: as §1

CDC2L2 = molecular target: T10, CDC2L2 (Homo sapiens, UniProt Q9UQ88); settings: CDC2L2, 1 uM
T10 construct: purchased Ambit KINOMEscan (DiscoverX)
How it was run: as §1

EPHB2 = molecular target: T11, EPHB2 (Homo sapiens, UniProt P29323); settings: EPHB2, 1 uM
T11 construct: purchased Ambit KINOMEscan (DiscoverX)
How it was run: as §1

ROCK1 = molecular target: T12, ROCK1 (Homo sapiens, UniProt Q13464); settings: for % binding compared to no inhibitor control: ROCK1, 1 uM
T12 construct: purchased Ambit KINOMEscan (DiscoverX)
How it was run: as §1

AMPK-alpha1 = molecular target: T13, AMPK-alpha1 (Homo sapiens, UniProt Q13131); settings: AMPK-alpha1, 1 uM
T13 construct: purchased Ambit KINOMEscan (DiscoverX)
How it was run: as §1

PRKD1 = molecular target: T14, PRKD1 (Homo sapiens, UniProt Q15139); settings: PRKD1, 1 uM
T14 construct: purchased Ambit KINOMEscan (DiscoverX)
How it was run: as §1

[1] = molecular target: T15, RPS6KA4(Kin.Dom.2-C-terminal) (Homo sapiens, UniProt O75676); settings: 1 uM
T15 construct: RPS6KA4(Kin.Dom.2-C-terminal); purchased Ambit KINOMEscan (DiscoverX)
How it was run: as §1

RIPK2 = molecular target: T16, RIPK2 (Homo sapiens, UniProt O43353); settings: RIPK2, 1 uM
T16 construct: purchased Ambit KINOMEscan (DiscoverX)
How it was run: as §1

MERTK = molecular target: T17, MERTK (Homo sapiens, UniProt Q12866); settings: 1 uM
T17 construct: purchased Ambit KINOMEscan (DiscoverX)
How it was run: as §1

[2] = molecular target: T18, TYK2(JH1domain-catalytic) (Homo sapiens, UniProt P29597); settings: 1 uM
T18 construct: TYK2(JH1domain-catalytic); purchased Ambit KINOMEscan (DiscoverX)
How it was run: as §1

PLK1 = molecular target: T19, PLK1 (Homo sapiens, UniProt P53350); settings: PLK1, 1 uM
T19 construct: purchased Ambit KINOMEscan (DiscoverX)
How it was run: as §1

PAK7 = molecular target: T20, PAK7 (Homo sapiens, UniProt Q9P286); settings: PAK7, 1 uM
T20 construct: purchased Ambit KINOMEscan (DiscoverX)
How it was run: as §1

TAOK3 = molecular target: T21, TAOK3 (Homo sapiens, UniProt Q9H2K8); settings: TAOK3, 1 uM
T21 construct: purchased Ambit KINOMEscan (DiscoverX)
How it was run: as §1

PRKX = molecular target: T22, PRKX (Homo sapiens, UniProt P51817); settings: 1 uM
T22 construct: purchased Ambit KINOMEscan (DiscoverX)
How it was run: as §1

EPHB6 = molecular target: T23, EPHB6 (Homo sapiens, UniProt O15197); settings: EPHB6, 1 uM
T23 construct: purchased Ambit KINOMEscan (DiscoverX)
How it was run: as §1

PIM1 = molecular target: T24, PIM1 (Homo sapiens, UniProt P11309); settings: PIM1, 1 uM
T24 construct: purchased Ambit KINOMEscan (DiscoverX)
How it was run: as §1

DAPK3 = molecular target: T25, DAPK3 (Homo sapiens, UniProt O43293); settings: DAPK3, 1 uM
T25 construct: purchased Ambit KINOMEscan (DiscoverX)
How it was run: as §1

PHKG1 = molecular target: T26, PHKG1 (Homo sapiens, UniProt Q16816); settings: PHKG1, 1 uM
T26 construct: purchased Ambit KINOMEscan (DiscoverX)
How it was run: as §1

ERK5 = molecular target: T27, ERK5 (Homo sapiens, UniProt Q13164); settings: ERK5, 1 uM
T27 construct: purchased Ambit KINOMEscan (DiscoverX)
How it was run: as §1

QSK = molecular target: T28, QSK (Homo sapiens, UniProt Q9Y2K2); settings: 1 uM
T28 construct: purchased Ambit KINOMEscan (DiscoverX)
How it was run: as §1

DYRK1A = molecular target: T29, DYRK1A (Homo sapiens, UniProt Q13627); settings: 1 uM
T29 construct: purchased Ambit KINOMEscan (DiscoverX)
How it was run: as §1

ACVRL1 = molecular target: T30, ACVRL1 (Homo sapiens, UniProt P37023); settings: ACVRL1, 1 uM
T30 construct: purchased Ambit KINOMEscan (DiscoverX)
How it was run: as §1

ACVR1 = molecular target: T31, ACVR1 (Homo sapiens, UniProt Q04771); settings: ACVR1, 1 uM
T31 construct: purchased Ambit KINOMEscan (DiscoverX)
How it was run: as §1

SRPK2 = molecular target: T32, SRPK2 (Homo sapiens, UniProt P78362); settings: SRPK2, 1 uM
T32 construct: purchased Ambit KINOMEscan (DiscoverX)
How it was run: as §1

BRSK1 = molecular target: T33, BRSK1 (Homo sapiens, UniProt Q8TDC3); settings: BRSK1, 1 uM
T33 construct: purchased Ambit KINOMEscan (DiscoverX)
How it was run: as §1

[3] = molecular target: T34, ABL1(H396P)-nonphosphorylated (Homo sapiens, UniProt P00519, H396P); settings: 1 uM
T34 construct: purchased Ambit KINOMEscan (DiscoverX)
How it was run: as §1

PLK4 = molecular target: T35, PLK4 (Homo sapiens, UniProt O00444); settings: PLK4, 1 uM
T35 construct: purchased Ambit KINOMEscan (DiscoverX)
How it was run: as §1

CDK2 = molecular target: T36, CDK2 (Homo sapiens, UniProt P24941); settings: CDK2, 1 uM
T36 construct: purchased Ambit KINOMEscan (DiscoverX)
How it was run: as §1

LATS2 = molecular target: T37, LATS2 (Homo sapiens, UniProt Q9NRM7); settings: LATS2, 1 uM
T37 construct: purchased Ambit KINOMEscan (DiscoverX)
How it was run: as §1

TAO1 = molecular target: T38, TAO1 (Homo sapiens, UniProt Q9UL54); settings: TAO1, 1 uM
T38 construct: purchased Ambit KINOMEscan (DiscoverX)
How it was run: as §1

T12 sequence (Q13464 whole entry): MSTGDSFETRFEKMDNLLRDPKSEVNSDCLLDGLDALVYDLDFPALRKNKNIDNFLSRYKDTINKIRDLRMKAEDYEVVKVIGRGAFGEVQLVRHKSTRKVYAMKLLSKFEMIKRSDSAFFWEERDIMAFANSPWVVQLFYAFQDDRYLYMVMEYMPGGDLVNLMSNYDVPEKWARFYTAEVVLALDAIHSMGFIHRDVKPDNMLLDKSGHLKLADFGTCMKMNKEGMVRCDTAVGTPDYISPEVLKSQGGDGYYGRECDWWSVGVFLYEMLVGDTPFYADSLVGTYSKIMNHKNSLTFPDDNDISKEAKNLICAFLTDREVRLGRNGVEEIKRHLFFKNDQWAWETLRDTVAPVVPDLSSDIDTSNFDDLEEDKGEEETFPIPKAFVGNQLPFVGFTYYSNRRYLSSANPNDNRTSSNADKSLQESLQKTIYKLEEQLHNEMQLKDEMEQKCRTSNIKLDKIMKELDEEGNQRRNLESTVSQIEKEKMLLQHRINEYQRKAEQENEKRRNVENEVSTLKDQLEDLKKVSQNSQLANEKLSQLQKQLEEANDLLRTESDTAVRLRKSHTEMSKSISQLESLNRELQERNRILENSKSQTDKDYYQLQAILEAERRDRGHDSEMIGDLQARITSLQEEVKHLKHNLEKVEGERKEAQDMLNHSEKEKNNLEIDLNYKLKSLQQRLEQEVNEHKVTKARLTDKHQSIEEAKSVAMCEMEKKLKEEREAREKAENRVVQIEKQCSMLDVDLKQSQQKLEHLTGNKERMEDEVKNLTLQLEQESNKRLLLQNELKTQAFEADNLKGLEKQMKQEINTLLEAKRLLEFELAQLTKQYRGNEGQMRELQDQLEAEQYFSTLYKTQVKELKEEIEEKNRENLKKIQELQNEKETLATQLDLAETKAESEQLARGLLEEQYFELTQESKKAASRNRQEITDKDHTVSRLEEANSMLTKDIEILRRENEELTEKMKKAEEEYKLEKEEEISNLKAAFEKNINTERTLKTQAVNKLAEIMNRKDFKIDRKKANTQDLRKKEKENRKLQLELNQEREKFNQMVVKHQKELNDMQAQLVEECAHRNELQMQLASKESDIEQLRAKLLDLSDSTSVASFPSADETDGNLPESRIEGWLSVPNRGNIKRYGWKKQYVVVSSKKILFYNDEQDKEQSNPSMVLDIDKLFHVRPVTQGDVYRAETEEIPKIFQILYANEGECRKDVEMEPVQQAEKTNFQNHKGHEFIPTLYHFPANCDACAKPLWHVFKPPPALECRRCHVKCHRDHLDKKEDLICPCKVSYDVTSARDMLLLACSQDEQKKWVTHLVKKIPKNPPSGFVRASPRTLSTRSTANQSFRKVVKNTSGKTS
T15 sequence (O75676 372-772 limits assumed): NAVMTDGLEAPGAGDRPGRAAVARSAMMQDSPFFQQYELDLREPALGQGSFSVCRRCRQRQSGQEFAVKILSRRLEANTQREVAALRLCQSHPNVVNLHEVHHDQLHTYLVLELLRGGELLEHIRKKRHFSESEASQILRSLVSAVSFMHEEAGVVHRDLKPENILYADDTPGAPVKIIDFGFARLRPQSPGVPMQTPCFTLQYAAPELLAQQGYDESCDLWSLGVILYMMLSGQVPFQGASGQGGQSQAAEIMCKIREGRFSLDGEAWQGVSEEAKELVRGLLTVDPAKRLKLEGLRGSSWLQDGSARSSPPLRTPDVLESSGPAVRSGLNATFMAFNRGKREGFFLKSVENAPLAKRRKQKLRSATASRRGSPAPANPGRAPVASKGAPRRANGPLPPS
T31 sequence (Q04771 21-509): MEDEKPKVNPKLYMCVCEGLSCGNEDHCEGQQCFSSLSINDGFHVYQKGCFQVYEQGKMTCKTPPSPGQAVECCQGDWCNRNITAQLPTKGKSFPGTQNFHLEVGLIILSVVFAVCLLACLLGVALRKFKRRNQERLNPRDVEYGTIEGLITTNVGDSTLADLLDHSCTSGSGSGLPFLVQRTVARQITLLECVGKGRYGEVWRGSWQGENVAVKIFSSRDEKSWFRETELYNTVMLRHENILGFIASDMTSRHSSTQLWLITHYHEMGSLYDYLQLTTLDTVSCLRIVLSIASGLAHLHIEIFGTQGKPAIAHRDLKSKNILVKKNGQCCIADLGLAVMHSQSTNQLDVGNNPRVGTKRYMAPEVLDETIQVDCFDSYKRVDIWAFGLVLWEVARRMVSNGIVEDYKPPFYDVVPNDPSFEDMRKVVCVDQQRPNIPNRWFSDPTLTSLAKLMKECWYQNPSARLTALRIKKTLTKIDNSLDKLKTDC
T33 sequence (Q8TDC3 whole entry): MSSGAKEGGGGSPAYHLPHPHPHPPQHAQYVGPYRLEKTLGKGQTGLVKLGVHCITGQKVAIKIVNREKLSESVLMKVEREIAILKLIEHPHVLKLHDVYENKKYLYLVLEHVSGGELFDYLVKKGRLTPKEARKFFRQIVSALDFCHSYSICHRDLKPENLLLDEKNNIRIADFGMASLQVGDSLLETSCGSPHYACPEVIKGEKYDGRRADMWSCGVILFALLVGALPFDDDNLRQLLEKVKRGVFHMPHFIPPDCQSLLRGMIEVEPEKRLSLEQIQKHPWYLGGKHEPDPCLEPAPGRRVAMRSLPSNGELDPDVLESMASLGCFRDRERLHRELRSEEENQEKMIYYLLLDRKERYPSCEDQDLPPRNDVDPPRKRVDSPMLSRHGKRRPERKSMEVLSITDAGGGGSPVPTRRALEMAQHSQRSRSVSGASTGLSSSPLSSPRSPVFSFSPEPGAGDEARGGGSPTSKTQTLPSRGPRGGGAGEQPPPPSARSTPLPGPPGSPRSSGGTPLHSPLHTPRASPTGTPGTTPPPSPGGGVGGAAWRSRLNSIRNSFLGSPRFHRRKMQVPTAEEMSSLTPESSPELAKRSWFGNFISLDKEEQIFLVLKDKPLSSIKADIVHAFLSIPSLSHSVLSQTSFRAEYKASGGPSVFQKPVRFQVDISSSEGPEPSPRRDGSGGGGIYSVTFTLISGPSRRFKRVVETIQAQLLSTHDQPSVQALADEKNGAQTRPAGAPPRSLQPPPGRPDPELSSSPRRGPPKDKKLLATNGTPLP
T4 sequence (P21860 20-1342): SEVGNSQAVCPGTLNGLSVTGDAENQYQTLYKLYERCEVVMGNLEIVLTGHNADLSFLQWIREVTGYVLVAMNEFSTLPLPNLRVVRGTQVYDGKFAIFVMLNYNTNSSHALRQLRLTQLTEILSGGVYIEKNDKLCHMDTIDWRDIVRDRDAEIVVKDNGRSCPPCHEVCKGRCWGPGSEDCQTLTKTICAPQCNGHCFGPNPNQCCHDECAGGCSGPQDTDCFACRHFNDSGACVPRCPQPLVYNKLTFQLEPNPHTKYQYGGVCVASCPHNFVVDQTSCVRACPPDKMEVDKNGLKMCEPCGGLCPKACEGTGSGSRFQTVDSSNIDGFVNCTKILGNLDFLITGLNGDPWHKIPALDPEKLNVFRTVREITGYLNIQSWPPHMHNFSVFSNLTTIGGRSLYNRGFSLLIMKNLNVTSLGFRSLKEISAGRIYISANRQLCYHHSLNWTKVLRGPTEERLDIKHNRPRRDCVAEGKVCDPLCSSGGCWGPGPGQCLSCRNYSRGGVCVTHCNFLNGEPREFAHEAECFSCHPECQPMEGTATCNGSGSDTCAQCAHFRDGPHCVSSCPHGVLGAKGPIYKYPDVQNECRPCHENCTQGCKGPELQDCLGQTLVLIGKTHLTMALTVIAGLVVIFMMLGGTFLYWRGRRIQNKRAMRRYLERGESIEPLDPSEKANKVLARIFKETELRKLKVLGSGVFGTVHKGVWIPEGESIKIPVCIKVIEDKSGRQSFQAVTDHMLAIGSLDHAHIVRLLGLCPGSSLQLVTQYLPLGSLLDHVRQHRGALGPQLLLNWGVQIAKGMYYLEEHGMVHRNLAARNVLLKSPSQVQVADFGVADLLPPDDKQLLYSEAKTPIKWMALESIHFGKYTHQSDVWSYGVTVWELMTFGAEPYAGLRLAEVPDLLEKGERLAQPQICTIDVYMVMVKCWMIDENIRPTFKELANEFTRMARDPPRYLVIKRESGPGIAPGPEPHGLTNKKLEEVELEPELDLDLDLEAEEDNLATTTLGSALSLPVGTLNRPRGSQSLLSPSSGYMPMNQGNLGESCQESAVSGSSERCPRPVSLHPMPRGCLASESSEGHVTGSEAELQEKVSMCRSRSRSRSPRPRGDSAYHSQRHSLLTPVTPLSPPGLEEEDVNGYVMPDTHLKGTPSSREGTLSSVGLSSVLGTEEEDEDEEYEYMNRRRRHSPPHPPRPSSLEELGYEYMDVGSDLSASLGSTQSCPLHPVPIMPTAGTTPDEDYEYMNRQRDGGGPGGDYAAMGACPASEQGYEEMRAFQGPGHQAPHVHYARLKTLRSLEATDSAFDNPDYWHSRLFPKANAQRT
T20 sequence (Q9P286 whole entry): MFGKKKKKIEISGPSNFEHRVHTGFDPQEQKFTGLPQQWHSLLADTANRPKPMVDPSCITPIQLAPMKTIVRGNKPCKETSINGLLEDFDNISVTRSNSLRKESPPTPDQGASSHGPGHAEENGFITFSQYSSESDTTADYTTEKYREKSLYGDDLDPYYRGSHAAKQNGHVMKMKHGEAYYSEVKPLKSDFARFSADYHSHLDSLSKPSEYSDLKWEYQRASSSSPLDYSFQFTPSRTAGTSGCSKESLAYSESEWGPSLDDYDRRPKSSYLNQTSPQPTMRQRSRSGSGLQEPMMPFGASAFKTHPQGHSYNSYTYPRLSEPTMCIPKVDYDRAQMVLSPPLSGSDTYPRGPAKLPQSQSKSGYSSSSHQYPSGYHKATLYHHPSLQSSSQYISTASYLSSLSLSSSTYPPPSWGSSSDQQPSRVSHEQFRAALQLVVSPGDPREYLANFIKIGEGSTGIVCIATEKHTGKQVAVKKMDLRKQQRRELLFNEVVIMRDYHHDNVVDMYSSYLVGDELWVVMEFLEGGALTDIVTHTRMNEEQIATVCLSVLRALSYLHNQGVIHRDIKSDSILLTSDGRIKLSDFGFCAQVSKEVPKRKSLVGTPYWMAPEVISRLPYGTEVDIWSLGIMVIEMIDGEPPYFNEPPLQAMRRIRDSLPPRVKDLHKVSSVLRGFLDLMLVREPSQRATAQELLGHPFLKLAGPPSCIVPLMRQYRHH

Structure (SMILES)	% binding compared to no inhibitor control (TRKB) [%]	% binding compared to no inhibitor control (PRKD2) [%]	% binding compared to no inhibitor control (TGFBR2) [%]	% binding compared to no inhibitor control (ERBB3) [%]	% binding compared to no inhibitor control (HIPK3) [%]	% binding compared to no inhibitor control (CLK4) [%]	% binding compared to no inhibitor control (TNIK) [%]	% binding compared to no inhibitor control (STK39) [%]	% binding compared to no inhibitor control (LATS1) [%]	% binding compared to no inhibitor control (CDC2L2) [%]	% binding compared to no inhibitor control (EPHB2) [%]	% binding compared to no inhibitor control (ROCK1) [%]	% binding compared to no inhibitor control (AMPK-alpha1) [%]	% binding compared to no inhibitor control (PRKD1) [%]	% binding compared to no inhibitor control [1] [%]	% binding compared to no inhibitor control (RIPK2) [%]	% binding compared to no inhibitor control (MERTK) [%]	% binding compared to no inhibitor control [2] [%]	% binding compared to no inhibitor control (PLK1) [%]	% binding compared to no inhibitor control (PAK7) [%]	further results
COc1ccc(-c2cc3nccn3c(Nc3ncccc3C(N)=O)n2)cc1OC.Cl.Cl [BAY61-3606, 2-[7-(3,4-dimethoxyphenyl)-imidazo [1,2-c]pyrimidin-5-ylamino] nicotinamide dihydrochloride, reference compound]	83	53	31	100	36	11	69	46	100	100	100	3.2	92	39	60	70	78	99	98	72	% inhibition ATP binding (ROCK1; ROCK1, KINOMEscan, 1 μM): 96.8%; % binding compared to no inhibitor control (TAOK3): 100%; % binding compared to no inhibitor control (PRKX): 75%; % binding compared to no inhibitor control (EPHB6): 17%; % binding compared to no inhibitor control (PIM1): 78%; % binding compared to no inhibitor control (DAPK3): 71%; % binding compared to no inhibitor control (PHKG1): 79%; % binding compared to no inhibitor control (ERK5): 87%; % binding compared to no inhibitor control (QSK): 100%; % binding compared to no inhibitor control (DYRK1A): 24%; % binding compared to no inhibitor control (ACVRL1): 100%; % binding compared to no inhibitor control (ACVR1): 78%; % binding compared to no inhibitor control (SRPK2): 53%; % binding compared to no inhibitor control (BRSK1): 82%; % binding compared to no inhibitor control [3]: 96%; % binding compared to no inhibitor control (PLK4): 35%; % binding compared to no inhibitor control (CDK2): 86%; % binding compared to no inhibitor control (LATS2): 45%; % binding compared to no inhibitor control (TAO1): 100%
COc1ccccc1Nc1nc(-c2ccc(OC)c(OC)c2)cc2nccn12 [BAY derivative 6]	74	100	100	87	95	100	98	97	100	100	99	81	100	100	86	100	100	25	100	98	% binding compared to no inhibitor control (TAOK3): 100%; % binding compared to no inhibitor control (PRKX): 73%; % binding compared to no inhibitor control (EPHB6): 56%; % binding compared to no inhibitor control (PIM1): 100%; % binding compared to no inhibitor control (DAPK3): 100%; % binding compared to no inhibitor control (PHKG1): 100%; % binding compared to no inhibitor control (ERK5): 100%; % binding compared to no inhibitor control (QSK): 87%; % binding compared to no inhibitor control (DYRK1A): 100%; % binding compared to no inhibitor control (ACVRL1): 100%; % binding compared to no inhibitor control (ACVR1): 98%; % binding compared to no inhibitor control (SRPK2): 90%; % binding compared to no inhibitor control (BRSK1): 100%; % binding compared to no inhibitor control [3]: 92%; % binding compared to no inhibitor control (PLK4): 100%; % binding compared to no inhibitor control (CDK2): 100%; % binding compared to no inhibitor control (LATS2): 88%; % binding compared to no inhibitor control (TAO1): 96%

Reference: PMC3399817 (PLoS ONE, 2012)
